This assay has as its target T1, CAMK2D (CaMKII delta) (Homo sapiens, UniProt Q13557).
T1 construct: purchased Thermo Fisher Scientific (Life Technologies) SelectScreen
In words: SelectScreen Z'LYTE. The class given is biochemical. The procedure, abridged:
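NU5455 was profiled across the SelectScreen Broad panel of kinase activity and binding assays. Z'LYTE reactions such as CSF1R ran at apparent Km ATP, while the Adapta CAMK1 assay used ATP listed as 10. Values are given as percent.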

T1 sequence (Q13557 whole entry): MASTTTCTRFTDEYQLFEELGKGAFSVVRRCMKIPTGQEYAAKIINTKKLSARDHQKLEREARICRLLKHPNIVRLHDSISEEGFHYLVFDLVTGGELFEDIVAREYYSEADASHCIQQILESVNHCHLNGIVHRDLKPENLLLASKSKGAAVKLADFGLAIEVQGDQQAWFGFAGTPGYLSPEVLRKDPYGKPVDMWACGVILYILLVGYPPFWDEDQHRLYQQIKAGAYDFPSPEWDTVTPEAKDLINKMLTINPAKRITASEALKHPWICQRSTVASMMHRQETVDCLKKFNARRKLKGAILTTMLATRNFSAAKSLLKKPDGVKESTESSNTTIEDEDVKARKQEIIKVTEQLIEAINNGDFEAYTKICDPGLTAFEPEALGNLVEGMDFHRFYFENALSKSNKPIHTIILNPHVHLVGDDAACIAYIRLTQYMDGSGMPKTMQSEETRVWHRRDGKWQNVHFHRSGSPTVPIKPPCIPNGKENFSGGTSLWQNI

Take `CN(C(=O)CN1CCOCC1)c1ccc2sc3c(-c4cccc5c(=O)cc(N6CC7CCC(C6)O7)oc45)cccc3c2c1` [NU5455]: the inhibition (in general, how much of the control response was suppressed) at 1 µM stood at 9.3%.

(Values after paper PMC6934184, “Selective DNA-PKcs inhibition extends the therapeutic index of localized radiotherapy and chemotherapy” (The Journal of Clinical Investigation, 2019).)
